In general, fraction unbound refers to the share of the substance not bound to proteins or other matrix.

Molecules are shown by their SMILES. Where a SMILES comes first, the peptide text is derived from it. Bridges are numbered along the chain shown (N, C = ends).

The values that follow come from US20160158317A1, “Antimicrobial Peptide Variants and Polynucleotides Encoding Same” (Adenium Biotech A/S, priority 2010, published 2016).

A short description of the data set: Determination of the protein binding (90% serum, 30 kDa filter, HPLC). It counts as in vitro ADME. Conditions: serum. As for the experimental part:
Protein binding assays were performed as follows. The purified peptides were mixed with 90% serum and centrifuged through a 30 kDa filter. The ultra-filtrate and the non filtrated serum samples were quantified by HPLC measurements and the protein binding was subsequently calculated.
Regarding `CC(C)[C@@H]1NC(=O)CNC(=O)[C@H](CC(N)=O)NC(=O)[C@H](CCCNC(=N)N)NC(=O)[C@H](Cc2ccc(O)cc2)NC(=O)[C@H](C(C)C)NC(=O)[C@@H]2CSSC[C@H](NC(=O)[C@H](C(C)C)NC(=O)[C@H](CCCNC(=N)N)NC1=O)C(=O)N[C@@H](Cc1c[nH]cn1)C(=O)N[C@@H](CCCNC(=N)N)C(=O)N[C@@H](CCCNC(=N)N)C(=O)N[C@H](C(=O)N[C@@H](CC(N)=O)C(=O)O)CSSC[C@H](NC(=O)[C@H](Cc1ccccc1)NC(=O)CN)C(=O)N[C@@H](Cc1c[nH]c3ccccc13)C(=O)N[C@@H](Cc1ccc(O)cc1)C(=O)N[C@@H](C(C)C)C(=O)N2` [compound 46] (H-GFCWYVCVYRNGVRVCHRRCN-OH; disulfide 3-20, 7-16 (inferred); N-terminus and C-terminus assumed), the fraction unbound is 0.12. With `CC(C)[C@@H]1NC(=O)CNC(=O)[C@H](CC(N)=O)NC(=O)[C@H](CCCNC(=N)N)NC(=O)[C@H](Cc2c[nH]cn2)NC(=O)[C@H](C(C)C)NC(=O)[C@@H]2CSSC[C@H](NC(=O)[C@H](C(C)C)NC(=O)[C@H](CCCNC(=N)N)NC1=O)C(=O)N[C@@H](Cc1c[nH]cn1)C(=O)N[C@@H](CCCNC(=N)N)C(=O)N[C@@H](CCCNC(=N)N)C(=O)N[C@H](C(=O)N[C@@H](CC(N)=O)C(=O)O)CSSC[C@H](NC(=O)[C@H](Cc1ccccc1)NC(=O)CN)C(=O)N[C@@H](Cc1c[nH]c3ccccc13)C(=O)N[C@@H](CC(N)=O)C(=O)N[C@@H](C(C)C)C(=O)N2` [compound 303] (H-GFCWNVCVHRNGVRVCHRRCN-OH; disulfide 3-20, 7-16 (inferred); N-terminus and C-terminus assumed) the figure was 0.57; with `CC(C)[C@@H]1NC(=O)CNC(=O)[C@H](CC(N)=O)NC(=O)[C@H](CCCNC(=N)N)NC(=O)[C@H](Cc2ccc(O)cc2)NC(=O)[C@H](C(C)C)NC(=O)[C@@H]2CSSC[C@H](NC(=O)[C@H](C(C)C)NC(=O)[C@H](CCCNC(=N)N)NC1=O)C(=O)N[C@@H](Cc1c[nH]cn1)C(=O)N[C@@H](CCCNC(=N)N)C(=O)N[C@@H](CCCNC(=N)N)C(=O)N[C@H](C(=O)N[C@@H](CCCNC(=N)N)C(=O)O)CSSC[C@H](NC(=O)[C@H](Cc1ccccc1)NC(=O)CN)C(=O)N[C@@H](Cc1c[nH]c3ccccc13)C(=O)N[C@@H](CC(N)=O)C(=O)N[C@@H](C(C)C)C(=O)N2` [compound 289] (H-GFCWNVCVYRNGVRVCHRRCR-OH; disulfide 3-20, 7-16 (inferred); N-terminus and C-terminus assumed), 0.17. With `CC(C)[C@@H]1NC(=O)CNC(=O)[C@H](CC(N)=O)NC(=O)[C@H](CCCNC(=N)N)NC(=O)[C@H](Cc2ccc(O)cc2)NC(=O)[C@H](C(C)C)NC(=O)[C@@H]2CSSC[C@H](NC(=O)[C@H](C(C)C)NC(=O)[C@H](CCCNC(=N)N)NC1=O)C(=O)N[C@@H](Cc1c[nH]cn1)C(=O)N[C@@H](CCCNC(=N)N)C(=O)N[C@@H](CCCNC(=N)N)C(=O)N[C@H](C(=O)NCC(=O)O)CSSC[C@H](NC(=O)[C@H](Cc1ccccc1)NC(=O)CN)C(=O)N[C@@H](Cc1c[nH]c3ccccc13)C(=O)N[C@@H](CC(N)=O)C(=O)N[C@@H](C(C)C)C(=O)N2` [compound 281] (H-GFCWNVCVYRNGVRVCHRRCG-OH; disulfide 3-20, 7-16 (inferred); N-terminus and C-terminus assumed) the figure was 0.34; with `CC(C)[C@@H]1NC(=O)CNC(=O)[C@H](CC(N)=O)NC(=O)[C@H](CCCNC(=N)N)NC(=O)[C@H](Cc2ccc(O)cc2)NC(=O)[C@H](C(C)C)NC(=O)[C@@H]2CSSC[C@H](NC(=O)[C@H](C(C)C)NC(=O)[C@H](CCCNC(=N)N)NC1=O)C(=O)N[C@@H](CO)C(=O)N[C@@H](CCCNC(=N)N)C(=O)N[C@@H](CCCNC(=N)N)C(=O)N[C@H](C(=O)N[C@@H](CC(N)=O)C(=O)O)CSSC[C@H](NC(=O)[C@H](Cc1ccccc1)NC(=O)CN)C(=O)N[C@@H](Cc1ccc(O)cc1)C(=O)N[C@@H](CCCNC(=N)N)C(=O)N[C@@H](C(C)C)C(=O)N2` [compound 211] (H-GFCYRVCVYRNGVRVCSRRCN-OH; disulfide 3-20, 7-16 (inferred); N-terminus and C-terminus assumed), 0.04; with `CC(C)[C@@H]1NC(=O)[C@H](CCCNC(=N)N)NC(=O)[C@H](Cc2c[nH]c3ccccc23)NC(=O)[C@@H](NC(=O)[C@H](Cc2ccccc2)NC(=O)CN)CSSC[C@@H](C(=O)N[C@@H](CC(N)=O)C(=O)O)NC(=O)[C@H](CCCNC(=N)N)NC(=O)[C@H](CCCNC(=N)N)NC(=O)[C@H](Cc2ccc(O)cc2)NC(=O)[C@@H]2CSSC[C@H](NC1=O)C(=O)N[C@@H](C)C(=O)N[C@@H](Cc1ccc(O)cc1)C(=O)N[C@@H](CCCCN)C(=O)N[C@@H](CC(N)=O)C(=O)NCC(=O)N[C@@H](CCCCN)C(=O)N[C@@H](CCCNC(=N)N)C(=O)N[C@@H](CO)C(=O)N2` [compound 523] (H-GFCWRVCAYKNGKRSCYRRCN-OH; disulfide 3-20, 7-16 (inferred); N-terminus and C-terminus assumed), 0.1.

The molecule `CC(C)[C@@H]1NC(=O)CNC(=O)[C@H](CC(N)=O)NC(=O)[C@H](CCCNC(=N)N)NC(=O)[C@H](Cc2ccc(O)cc2)NC(=O)[C@H](C(C)C)NC(=O)[C@@H]2CSSC[C@H](NC(=O)[C@H](C(C)C)NC(=O)[C@H](CCCNC(=N)N)NC1=O)C(=O)N[C@@H](Cc1c[nH]cn1)C(=O)N[C@@H](CCCNC(=N)N)C(=O)N[C@@H](Cc1c[nH]cn1)C(=O)N[C@H](C(=O)N[C@@H](CC(N)=O)C(=O)O)CSSC[C@H](NC(=O)[C@H](Cc1ccccc1)NC(=O)[C@@H](N)CCCNC(=N)N)C(=O)N[C@@H](Cc1c[nH]c3ccccc13)C(=O)N[C@@H](CC(N)=O)C(=O)N[C@@H](C(C)C)C(=O)N2` [compound 359] (H-RFCWNVCVYRNGVRVCHRHCN-OH; disulfide 3-20, 7-16 (inferred); N-terminus and C-terminus assumed) gave a fraction unbound of 0.2.

Regarding `CC(C)[C@@H]1NC(=O)CNC(=O)[C@H](CC(N)=O)NC(=O)[C@H](CCCNC(=N)N)NC(=O)[C@H](Cc2ccc(O)cc2)NC(=O)[C@H](C(C)C)NC(=O)[C@@H]2CSSC[C@H](NC(=O)[C@H](CCCCN)NC(=O)[C@H](CCCNC(=N)N)NC1=O)C(=O)N[C@@H](Cc1c[nH]cn1)C(=O)N[C@@H](CCCNC(=N)N)C(=O)N[C@@H](CCCNC(=N)N)C(=O)N[C@H](C(=O)N[C@@H](CC(N)=O)C(=O)O)CSSC[C@H](NC(=O)[C@H](Cc1ccccc1)NC(=O)CN)C(=O)N[C@@H](Cc1c[nH]c3ccccc13)C(=O)N[C@@H](CCCNC(=N)N)C(=O)N[C@@H](C(C)C)C(=O)N2` [compound 315] (H-GFCWRVCVYRNGVRKCHRRCN-OH; disulfide 3-20, 7-16 (inferred); N-terminus and C-terminus assumed), the fraction unbound was 0.07. For the molecule `CC(C)[C@@H]1NC(=O)CNC(=O)[C@H](CC(N)=O)NC(=O)[C@H](CCCNC(=N)N)NC(=O)[C@H](Cc2ccc(O)cc2)NC(=O)[C@H](C(C)C)NC(=O)[C@@H]2CSSC[C@H](NC(=O)[C@H](C(C)C)NC(=O)[C@H](CCCNC(=N)N)NC1=O)C(=O)N[C@@H](CC(N)=O)C(=O)N[C@@H](CCCNC(=N)N)C(=O)N[C@@H](CCCNC(=N)N)C(=O)N[C@H](C(=O)N[C@@H](CC(N)=O)C(=O)O)CSSC[C@H](NC(=O)[C@H](Cc1ccccc1)NC(=O)CN)C(=O)N[C@@H](Cc1c[nH]c3ccccc13)C(=O)N[C@@H](Cc1ccc(O)cc1)C(=O)N[C@@H](C(C)C)C(=O)N2` [compound 48] (H-GFCWYVCVYRNGVRVCNRRCN-OH; disulfide 3-20, 7-16 (inferred); N-terminus and C-terminus assumed), the fraction unbound was 0.32.

The molecule `CC(C)[C@@H]1NC(=O)CNC(=O)[C@H](CC(N)=O)NC(=O)[C@H](CCCNC(=N)N)NC(=O)[C@H](CCCCN)NC(=O)[C@H](C(C)C)NC(=O)[C@@H]2CSSC[C@H](NC(=O)[C@H](C(C)C)NC(=O)[C@H](CCCNC(=N)N)NC1=O)C(=O)N[C@@H](Cc1c[nH]cn1)C(=O)N[C@@H](CCCNC(=N)N)C(=O)N[C@@H](CCCNC(=N)N)C(=O)N[C@H](C(=O)N[C@@H](CC(N)=O)C(=O)O)CSSC[C@H](NC(=O)[C@H](Cc1ccccc1)NC(=O)CN)C(=O)N[C@@H](Cc1c[nH]c3ccccc13)C(=O)N[C@@H](CC(N)=O)C(=O)N[C@@H](C(C)C)C(=O)N2` [compound 305] (H-GFCWNVCVKRNGVRVCHRRCN-OH; disulfide 3-20, 7-16 (inferred); N-terminus and C-terminus assumed) had a fraction unbound of 0.24. With `CC(C)[C@@H]1NC(=O)CNC(=O)[C@H](CC(N)=O)NC(=O)[C@H](CCCNC(=N)N)NC(=O)[C@H](Cc2ccc(O)cc2)NC(=O)[C@H](C(C)C)NC(=O)[C@@H]2CSSC[C@H](NC(=O)[C@H](C(C)C)NC(=O)[C@H](CCCNC(=N)N)NC1=O)C(=O)N[C@@H](Cc1ccc(O)cc1)C(=O)N[C@@H](CCCNC(=N)N)C(=O)N[C@@H](CCCNC(=N)N)C(=O)N[C@H](C(=O)N[C@@H](CC(N)=O)C(=O)O)CSSC[C@H](NC(=O)[C@H](Cc1ccccc1)NC(=O)CN)C(=O)N[C@@H](C)C(=O)N[C@@H](Cc1ccc(O)cc1)C(=O)N[C@@H](C(C)C)C(=O)N2` [compound 4] (H-GFCAYVCVYRNGVRVCYRRCN-OH; disulfide 3-20, 7-16 (inferred); N-terminus and C-terminus assumed), the free fraction (fraction unbound) is 0.11.

For the molecule `CC(C)[C@@H]1NC(=O)[C@@H]2CSSC[C@H](NC(=O)[C@H](C(C)C)NC(=O)[C@H](CCCNC(=N)N)NC(=O)[C@@H]3CCCN3C(=O)CNC(=O)[C@H](CC(N)=O)NC(=O)[C@H](CCCNC(=N)N)NC(=O)[C@H](Cc3ccc(O)cc3)NC1=O)C(=O)N[C@@H](Cc1ccc(O)cc1)C(=O)N[C@@H](CCCNC(=N)N)C(=O)N[C@@H](CCCNC(=N)N)C(=O)N[C@H](C(=O)N[C@@H](CC(N)=O)C(=O)O)CSSC[C@H](NC(=O)[C@H](Cc1ccccc1)NC(=O)CN)C(=O)N[C@@H](Cc1c[nH]c3ccccc13)C(=O)N[C@@H](Cc1ccc(O)cc1)C(=O)N[C@@H](C(C)C)C(=O)N2` [compound 33] (H-GFCWYVCVYRNGPRVCYRRCN-OH; disulfide 3-20, 7-16 (inferred); N-terminus and C-terminus assumed), the fraction unbound came out at 0.01.
